Laboratory results from article PMC7008171 (Frontiers in Pharmacology, 2020).
Several values for one entry are separate records, joined by “and”; a condition that tells them apart may be missing. Equal entries are not always repeated. Marks after values point to notes of the source that are not given here.

Tests used:
[1] = sublingual tablets (Intermezzo), OCCAT model; ref Xia et al., 2015; cited from earlier work
[2] = design: method as in Mannens et al., 1994; conditions: dog plasma; ref Mannens et al., 1994; cited from earlier work
[3] = in vivo; conditions: both, Beagle, dog, plasma, 1 mg
Procedure: (§1) The dogs were kept still for 2 min. A dose of 1 mg/body was administrated.
(§2) Four healthy Beagle dogs (male:female, 1:1) weighting 9.04 ± 1.88 kg (Certificate No. 20150005001131), purchased from Shanghai Jambo Biological Technology Co., Ltd (Shanghai, China), were used in this study. The study protocol was reviewed and approved by the Animal Management and Ethic Committee of the China State Institute of Pharmaceutical Industry. Dogs were housed individually in stainless steel cages. Tap water was given ad-libitum and food was provided once daily. Dogs were fasted for 12 h before drug administration. Blank blood samples were withdrawn prior to the administration of the drugs. Subsequently, blood samples were taken from forelimb vein at 0.167, 0.333, 0.5, 0.75, 1.0, 1.5, 2.0, 3.0, 4.0, 6.0, 8.0, 12, 24, and 32 h into heparin sodium-containing centrifuge tubes which were then centrifuged for 5 min at 3,000 rpm. The supernatant was collected and stored at -20 °C in the refrigerator until further analysis.
(§3) The main pharmacokinetic parameters of maximum plasma concentration (Cmax), peak time (Tmax), area under the concentration-time curve from 0 h to the time of last measurable concentration (AUC0-t), and AUC from 0 to infinity (AUC0-∞), mean residue time (MRT), apparent volume of distribution (Vd), elimination half-life (t1/2), and in vivo clearance (CL) were calculated by non-compartmental approach using the software of DAS 2.0 ([Cheng et al., 2016]).
(§4) Calibration curves were constructed in the concentration range of 0.2–200 ng/ml with a lower limit of quantification (LLOQ) of 0.2 ng/ml. […] The HPLC system (Shimadzu Co. Ltd, Kyoto, Japan) equipped with a triple quadruple mass spectrometer (Shimadzu Co. Ltd, Kyoto, Japan) operating with ESI in the positive mode was used for the quantification of the analytes. Mobile phases consisted of methanol and water (35:65, v/v), both containing 0.05% formic acid and 5 mM ammonium formate. The flow rate was set at 0.3 ml/min. Ten μl of the aliquot was injected into the Inspire C18 column (2.1 mm×50 mm, 3 μm, Dikma Technologies Inc, Beijing, China) at a column oven of 40 °C. […] Direct protein precipitation using acetonitrile was used for the extraction of analytes from dog plasma.

[4] = ref PMDA label, 2018; cited from earlier work
[5] = taken orally; ref Huang et al., 1993; de Leon et al., 2010; Shimizu et al., 2017; cited from earlier work
[6] = Pharmacokinetic study in Beagle dogs (i.v., i.g., supralingual, sublingual; crossover, single dose);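 note: Single-dose crossover across four periods with one-week washout, plasma drug levels quantified by LC-MS/MS in positive ESI mode, lower quantification limit 0.2 ng/mL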; conditions: three-compartmental fit of i.v. profile in Beagle dogs
Procedure: as §1, §2, §3, §4

## Cc1ccc(-c2nc3ccc(C)cn3c2CC(=O)N(C)C)cc1 [zolpidem]
[1]
  Estimated absorption via the oral mucosa: about 18%

## Cc1nc2n(c(=O)c1CCN1CCC(c3noc4cc(F)ccc34)CC1)CCCC2 [risperidone]
[2]
  fu (plasma unbound fraction): 0.083 ^c
[3]
  AUC(0-inf): 102 ± 43.3 ng·h/mL
  AUC(0-t): 98.9 ± 40.9 ng·h/mL
  Cmax: 52.6 ± 10.6 ng/mL
  MRT inf: 1.93 ± 0.52 h
  MRT last: 1.78 ± 0.41 h
  Tmax: 0.67 ± 0.38 h
  Vd: 17.8 ± 3.06 L
  clearance: 184 mL/min
  half-life: 1.21 ± 0.4 h
[3]; iv
  AUC(0-inf): 179 ± 115 ng·h/mL
  AUC(0-t): 177 ± 113 ng·h/mL
  Cmax: 215 ± 56.4 ng/mL
  MRT inf: 1.4 ± 0.89 h
  MRT last: 1.3 ± 0.8 h
  Tmax: 0.03 h
  Vd: 12.8 L and 0.314 L/kg
  clearance: 128 mL/min and 9.84 mL/min/kg
  half-life: 1.37 ± 0.82 h
[3]; other: supralingual
  AUC(0-inf): 102 ± 57.4 ng·h/mL
  AUC(0-t): 97.3 ± 54.4 ng·h/mL
  Cmax: 59.4 ± 7.32 ng/mL
  MRT inf: 1.73 ± 0.82 h
  MRT last: 1.5 ± 0.71 h
  Tmax: 0.62 ± 0.58 h
  Vd: 17.2 ± 7.7 L
  clearance: 199 mL/min
  half-life: 1.13 ± 0.5 h
[3]; po
  AUC(0-inf): 91.3 ± 48.6 ng·h/mL
  AUC(0-t): 90 ± 48.7 ng·h/mL
  Cmax: 45.9 ± 7.6 ng/mL
  MRT inf: 1.79 ± 0.74 h
  MRT last: 1.71 ± 0.75 h
  Tmax: 0.71 ± 0.53 h
  half-life: 0.92 ± 0.41 h
[4]
  Solubility (pH 6.8): 0.9 ^d mg/ml
[5]
  Oral bioavailability: about 70%
[6]
  K12: 16.352 ^e h^-1
  K13: 0.4625 ^e h^-1
  K21: 9.007 ^e h^-1
  K31: 0.4103 ^e h^-1
  V2 (volume of distribution of the first peripheral compartment): 0.5699 ^e L/kg
  V3 (volume of distribution of the second peripheral compartment): 0.3538 ^e L/kg
